Source: PubChem BioAssay AID1996
Converted amounts (≈) assume the structure as drawn.

Details: buffer; pH 7.4; 200.0 µM

SMILES | solubility kinetic
Cc1ccc(CNC(=S)Nc2cc(C)ccc2OC(F)F)cc1 | 4.7 µg/mL (≈ 14 µM)
Cl.Clc1ccccc1CNCc1ccncc1 | 38.9 µg/mL
COc1ccc(OC)c(-n2c(C)cc(C=O)c2C)c1 | > 38.9 µg/mL
O=C(Nc1ccccc1O)c1ccc2c(c1)C(=O)N(c1ccccc1)C2=O | < 0.4 µg/mL
CCc1c(C)nc(N)c(C#N)c1-c1ccccc1 | 0.3 µg/mL (≈ 1.26 µM)
COc1ccc(NC(=S)NCc2ccc3c(c2)OCO3)cc1 | > 47.5 µg/mL
CC(CC(=O)Nc1ccccc1)n1ccnc1 (stereo unspecified) | > 34.4 µg/mL
C=CCn1c(SCC#N)nnc1-c1ccc2ncccc2c1 | > 46.1 µg/mL
Cc1ccc(CNC(=O)c2cc3ccccc3oc2=O)cc1 | 1.2 µg/mL (≈ 4.09 µM)
CCCCCNC(=O)[C@@H]1CSC2c3ccccc3C(=O)N21 (stereo partly specified) | 27.7 µg/mL (≈ 91 µM)
CCCN(CC(=O)Nc1ccccc1OC)C(=O)CC1CCCC1 | > 49.9 µg/mL
CC(=O)N/C(=C\c1ccccc1)C(=O)OCc1ccccc1 | > 44.3 µg/mL
Oc1ccccc1C(=S)N1CCCC1 | > 31.1 µg/mL
N#Cc1ccccc1OCC(=O)OCC(=O)NC1CC1 | > 41.1 µg/mL
COc1ccc(Cl)cc1/C=C(\C#N)C(N)=O | > 35.5 µg/mL
O=C(N/N=C/c1ccc2nccnc2c1)c1ccncc1 | > 41.6 µg/mL
COc1ccc(NC(=O)COC(=O)CCc2ccc(S(=O)(=O)N3CCOCC3)cc2)cc1OC | 62 µg/mL (≈ 126 µM)
Cc1cc(C)cc(N2C(=O)CCN(Cc3ccccc3)C2=O)c1 | 38 µg/mL (≈ 123 µM)
Cc1ccnc(Nc2nc(-c3ccc(O)c(O)c3)cs2)c1 | 8.7 µg/mL (≈ 29.1 µM)
NS(=O)(=O)c1ccc(N2CCN(C(=O)c3ccco3)CC2)nc1 | > 50.5 µg/mL
O=C(NCCN1CCOCC1)c1c(Cl)cccc1Cl | 44.9 µg/mL (≈ 148 µM)

SMILES | solubility kinetic
CC(C)(C)NC(=O)NC12CC3CC(CC(C3)C1)C2 | 2.1 µg/mL (≈ 8.39 µM)
O=C(NCC(c1ccco1)N1CCOCC1)c1ccccc1 (stereo unspecified) | > 45.1 µg/mL
COc1ccc(C2N(c3ccccc3)C(=O)C2(F)F)cc1OC (stereo unspecified) | 36.2 µg/mL (≈ 113 µM)
O=C(NC1CCSC1=O)C1CCCCC1 (stereo unspecified) | > 34.1 µg/mL
C/C(=C\c1ccccc1)CN1CCN(C)CC1 | 18.1 µg/mL (≈ 78.6 µM)
COc1ccc(Cl)cc1/C=C1/C(=O)ON=C1C | 29 µg/mL (≈ 115 µM)
CC(C)CCc1noc(CN(CC2CCC2)CC2CCCO2)n1 (stereo unspecified) | 11.9 µg/mL (≈ 37 µM)
Cc1cc(N2Cc3ccccc3C2)ccc1C=O | 7.1 µg/mL (≈ 29.9 µM)
CCOC(=O)/C(C#N)=C/Nc1cc(F)ccc1C | 3.2 µg/mL (≈ 12.9 µM)
CSc1ncc(C(=O)NCCCc2ccccc2)c(C)n1 | 43 µg/mL (≈ 143 µM)
COC(=O)[C@@H](NC(=O)NC1CCCCC1C)C(C)C (stereo partly specified) | > 40.6 µg/mL
CCOc1ccc(S(=O)(=O)NCCCn2ccnc2)cc1 | 45.4 µg/mL (≈ 147 µM)
N#C/C(=C\c1ccc(Cl)c([N+](=O)[O-])c1)c1ccccn1 | 2.5 µg/mL (≈ 8.75 µM)
Cc1ccc(C(=O)Nc2c(C)cc(-c3ccccc3)oc2=O)cc1 | < 0.7 µg/mL
CC(C)(C)NC(=O)NC(=O)CN1CCCc2ccccc21 | 11.9 µg/mL (≈ 41.1 µM)
O=C(/C=C/c1c(Cl)cccc1Cl)N1CCOCC1 | > 42.9 µg/mL
CCN1CCN(S(=O)(=O)c2c(C)cc(C)cc2C)CC1 | > 44.5 µg/mL
Brc1ccc(C2=CSC3=NCCN23)cc1 | 28.9 µg/mL (≈ 103 µM)
Cc1cc(C)n2nc(SCC(=O)N3CC(C)CC(C)C3)nc2n1 (stereo unspecified) | > 50 µg/mL
O=[N+]([O-])c1cccc2nc(-c3ccccc3)c(-c3ccccc3)nc12 | < 0.2 µg/mL
Cc1cccc(NC(=O)CN(c2ccc(F)cc2)S(C)(=O)=O)c1 | 42.4 µg/mL (≈ 126 µM)

SMILES | solubility kinetic
Cc1cc(Br)ccc1NC(=O)CNC(=O)CSc1nccn1C | > 59.6 µg/mL
O=C(O)CSc1ncccn1 | > 25.5 µg/mL
CN(C)c1ccc(C(=O)N2CCCC2)cc1 | > 32.7 µg/mL
CC(=O)NCCC(=O)N1CCCC(N(C)CCc2ccccc2)C1 (stereo unspecified) | > 49.7 µg/mL
Cc1ccccc1CN(C)C(=O)CNC(=O)c1ccc2ccccc2c1 | 31.1 µg/mL (≈ 89.8 µM)
O=C(CSc1ncnc2sccc12)Nc1ccccc1 | 6.9 µg/mL (≈ 22.9 µM)
CCc1nc(NCCO)c(C#N)c2c1CCCC2 | 35.5 µg/mL (≈ 145 µM)
O=C(NCCO)/C(=C/c1ccco1)NC(=O)c1ccco1 | 43.3 µg/mL (≈ 149 µM)
CC1CC(C)CN(C(=O)CNC(=O)c2ccc3ccccc3c2)C1 (stereo unspecified) | > 48.7 µg/mL
CNc1nc(N)c([N+](=O)[O-])c(Nc2cccc(Cl)c2)n1 | 0.4 µg/mL (≈ 1.36 µM)
Cc1oc(-c2cccc(C(F)(F)F)c2)nc1CN1CCOCC1 | 44.3 µg/mL (≈ 136 µM)
O=C1NC(=O)N(Cc2ccccc2F)C1=O | > 33.3 µg/mL
CN(C)CC/C=C1/c2ccc(F)cc2Sc2ccc(Cl)cc21.Cl | 26.1 µg/mL
Cc1csc(SCC(=O)NC(=O)NC(C)C)n1 | > 41 µg/mL
CC(C)N1C(=O)C(=O)N(CC(=O)N(C)c2ccccc2)C1=O | > 45.5 µg/mL
O=C(NCc1ccccc1Cl)C1CCCO1 (stereo unspecified) | 32.1 µg/mL (≈ 134 µM)
Cl.Oc1ccc(CCNc2c3ccccc3nc3ccccc23)cc1O | 44.7 µg/mL
CC(NC(=O)c1ccco1)C12CC3CC(CC(C3)C1)C2 (stereo unspecified) | > 41 µg/mL
COc1ccc(NC(=O)Nc2ccc3c(c2)CCC3)cc1 | < 0.3 µg/mL
